Data taken from ChEMBL document CHEMBL1201862, “PubChem BioAssay data set” (2004).
Values joined by “and” are separate entries in the source; they are usually repeats but may differ in a detail not shown here. Equal values may be shown once. Active and inactive are the calls of the source.

Columns and labels:
cells = assay type: functional
[1] = molecular target: FAD-linked sulfhydryl oxidase ALR (Homo sapiens, UniProt P55789); assay: inhibitors of human ALR sulfhydryl oxidase, dose response, biochemical, H2O2 detection, luminescence, cherry-pick (AID 493248)
FAD-linked sulfhydryl oxidase ALR, sequence (P55789 whole entry): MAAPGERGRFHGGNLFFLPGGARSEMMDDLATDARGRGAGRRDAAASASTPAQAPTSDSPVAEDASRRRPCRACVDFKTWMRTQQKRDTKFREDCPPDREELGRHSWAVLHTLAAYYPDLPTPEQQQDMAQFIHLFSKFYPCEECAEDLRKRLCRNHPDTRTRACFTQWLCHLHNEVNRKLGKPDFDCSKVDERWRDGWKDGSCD

[2] = molecular target: T1, Polyadenylate-binding protein 1 (Homo sapiens, UniProt P11940); assay: PABP1 MLLE–PAM2 interaction inhibitors, dose response, miRNA deadenylation inhibitor project, biochemical, fluorescence polarization, Cy5-PAM2 peptide, secondary (AID 602260); assay type: functional; settings: read-out: IC50_Mean
T1 sequence (P11940 whole entry): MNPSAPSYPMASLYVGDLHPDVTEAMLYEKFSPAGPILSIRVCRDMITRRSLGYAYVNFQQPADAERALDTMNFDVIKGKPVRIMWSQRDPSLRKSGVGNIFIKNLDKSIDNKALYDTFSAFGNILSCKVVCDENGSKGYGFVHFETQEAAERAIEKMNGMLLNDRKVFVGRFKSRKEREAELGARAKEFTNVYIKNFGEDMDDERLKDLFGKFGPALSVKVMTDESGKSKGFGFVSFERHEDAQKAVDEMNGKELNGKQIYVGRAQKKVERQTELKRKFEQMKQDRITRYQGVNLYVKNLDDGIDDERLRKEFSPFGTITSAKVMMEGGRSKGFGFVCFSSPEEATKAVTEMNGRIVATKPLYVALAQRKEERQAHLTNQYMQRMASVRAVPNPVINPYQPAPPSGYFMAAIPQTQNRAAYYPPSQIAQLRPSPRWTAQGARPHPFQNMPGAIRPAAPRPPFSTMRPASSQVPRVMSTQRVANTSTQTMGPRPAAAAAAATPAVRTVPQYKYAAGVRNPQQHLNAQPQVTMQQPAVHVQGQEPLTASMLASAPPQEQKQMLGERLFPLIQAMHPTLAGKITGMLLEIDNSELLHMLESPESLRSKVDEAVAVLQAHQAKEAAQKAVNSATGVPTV

[3] = molecular target: T1, Polyadenylate-binding protein 1; assay: PABP1 MLLE–PAM2 binding inhibitor potency, dose response, biochemical, fluorescence polarization, FITC-PAM2 peptide (AID 602259); assay type: functional; settings: read-out: IC50_Mean
[4] = Luminescence Cell-Based Dose Response HTS to Identify Inhibitors of 5'UTR Stem-Loop Driven Prion Protein mRNA Translation in H4 Neuroglioblastoma Cells. [Related pubchem assays: 1827 (Project Summary), 1813 (Primary HTS)]; assay type: functional
[5] = inhibitors of SNCA 5'UTR-driven reporter translation, confirmation, H4 neuroglioma cells, luminescence (AID 1988); assay type: functional, cell-based
Protein skinhead-1 = molecular target: T2, Protein skinhead-1 (Caenorhabditis elegans, UniProt P34707); assay type: functional
T2 sequence (P34707 whole entry): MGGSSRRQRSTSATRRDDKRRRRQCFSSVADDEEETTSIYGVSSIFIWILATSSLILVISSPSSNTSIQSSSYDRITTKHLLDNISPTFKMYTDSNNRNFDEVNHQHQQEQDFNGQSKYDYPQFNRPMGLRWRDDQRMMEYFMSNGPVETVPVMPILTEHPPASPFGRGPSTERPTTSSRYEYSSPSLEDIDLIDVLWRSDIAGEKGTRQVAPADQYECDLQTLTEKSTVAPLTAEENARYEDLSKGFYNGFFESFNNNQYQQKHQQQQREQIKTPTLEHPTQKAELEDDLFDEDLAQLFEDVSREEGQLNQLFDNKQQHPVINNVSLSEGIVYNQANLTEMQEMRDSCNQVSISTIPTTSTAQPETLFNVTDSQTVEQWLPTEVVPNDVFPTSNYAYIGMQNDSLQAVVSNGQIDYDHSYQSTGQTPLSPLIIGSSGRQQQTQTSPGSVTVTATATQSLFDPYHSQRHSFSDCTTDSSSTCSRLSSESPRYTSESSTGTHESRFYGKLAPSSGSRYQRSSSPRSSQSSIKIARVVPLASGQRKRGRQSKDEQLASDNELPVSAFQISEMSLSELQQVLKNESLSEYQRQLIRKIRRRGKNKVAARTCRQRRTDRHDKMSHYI

[6] = cytotoxicity toward NIH3T3 fibroblasts, dose response, counter-screen, cell-based, ATP luminescence, mouse fibroblasts (AID 2010); assay type: functional;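 further: cells exposed to compound for about 90 hours before reading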
INS1 = assay: beta cell apoptosis inhibitors, cytokine rescue, dose response, luminescence, retest (AID 449756); assay type: functional, cell-based; settings: Rattus norvegicus;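 further: cell death triggered by IL-1 beta plus TNF-alpha plus IFN-gamma mixture; protective hits raise ATP signal compared with cytokine alone wells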
[7] = inhibitors of firefly luciferase expression or activity, dose response, H4 neuroglioma cells, luminescence (AID 1990); assay type: functional, cell-based
[8] = inhibitors of intracellular T. cruzi replication, confirmation, NIH3T3 host cells, beta-gal luminescence (AID 2044); assay type: functional, cell-based;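 further: intracellular parasites grown in NIH/3T3 mouse fibroblasts as host cells; luminescent beta-galactosidase reporter signal from transgenic T. cruzi replicating inside host cells; inhibitors lower the luminescence signal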
[9] = molecular target: T3, Heat shock factor protein 1 (Mus musculus, UniProt P38532); assay: inhibition of MG132-induced HSE-luciferase signal, confirmation, cell-based, NIH3T3, luminescence, dose retest (AID 2382); assay type: functional;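 further: NIH3T3 fibroblasts with HSF1-driven luciferase reporter stressed by proteasome inhibitor MG132; luminescence from HSF1-driven luciferase expression after 8 hours of MG132 stress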
T3 sequence (P38532 whole entry): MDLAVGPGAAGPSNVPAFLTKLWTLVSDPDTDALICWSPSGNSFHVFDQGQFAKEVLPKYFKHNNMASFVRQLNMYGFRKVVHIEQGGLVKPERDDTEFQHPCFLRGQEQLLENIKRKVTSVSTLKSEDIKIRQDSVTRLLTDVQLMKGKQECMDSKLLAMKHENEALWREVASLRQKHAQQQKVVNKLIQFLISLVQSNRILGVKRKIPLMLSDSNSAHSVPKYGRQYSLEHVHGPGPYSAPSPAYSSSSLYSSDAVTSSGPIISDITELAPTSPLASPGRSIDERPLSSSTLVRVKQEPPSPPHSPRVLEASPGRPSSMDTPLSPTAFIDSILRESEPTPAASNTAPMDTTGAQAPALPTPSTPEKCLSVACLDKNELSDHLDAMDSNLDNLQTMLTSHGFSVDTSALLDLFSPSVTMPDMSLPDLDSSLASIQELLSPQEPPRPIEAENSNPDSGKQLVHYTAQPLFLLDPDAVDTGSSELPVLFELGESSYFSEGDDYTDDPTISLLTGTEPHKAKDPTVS

Cytochrome P450 3A4 = Cytochrome P450 3A4 (Homo sapiens, UniProt P08684);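 further: CYP3A4 tested as one member of a cytochrome P450 panel screen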
Cytochrome P450 3A4, sequence (P08684 whole entry): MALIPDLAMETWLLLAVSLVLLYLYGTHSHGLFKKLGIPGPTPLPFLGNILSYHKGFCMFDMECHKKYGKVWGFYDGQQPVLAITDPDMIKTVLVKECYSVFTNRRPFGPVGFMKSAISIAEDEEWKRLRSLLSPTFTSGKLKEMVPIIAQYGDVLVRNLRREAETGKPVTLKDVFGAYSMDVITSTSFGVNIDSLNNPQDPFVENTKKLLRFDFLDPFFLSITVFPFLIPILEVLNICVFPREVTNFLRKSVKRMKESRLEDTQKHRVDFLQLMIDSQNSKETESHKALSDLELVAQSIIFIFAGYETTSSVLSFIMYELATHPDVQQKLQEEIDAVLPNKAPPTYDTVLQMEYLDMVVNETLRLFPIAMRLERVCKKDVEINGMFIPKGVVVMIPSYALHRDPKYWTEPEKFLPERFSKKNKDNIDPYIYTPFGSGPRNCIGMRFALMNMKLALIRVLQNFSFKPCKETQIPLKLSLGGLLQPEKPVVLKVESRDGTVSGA

Cytochrome P450 2D6 = Cytochrome P450 2D6 (Homo sapiens, UniProt P10635);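 further: CYP2D6 member of a cytochrome P450 panel assay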
Cytochrome P450 2D6, sequence (P10635 whole entry): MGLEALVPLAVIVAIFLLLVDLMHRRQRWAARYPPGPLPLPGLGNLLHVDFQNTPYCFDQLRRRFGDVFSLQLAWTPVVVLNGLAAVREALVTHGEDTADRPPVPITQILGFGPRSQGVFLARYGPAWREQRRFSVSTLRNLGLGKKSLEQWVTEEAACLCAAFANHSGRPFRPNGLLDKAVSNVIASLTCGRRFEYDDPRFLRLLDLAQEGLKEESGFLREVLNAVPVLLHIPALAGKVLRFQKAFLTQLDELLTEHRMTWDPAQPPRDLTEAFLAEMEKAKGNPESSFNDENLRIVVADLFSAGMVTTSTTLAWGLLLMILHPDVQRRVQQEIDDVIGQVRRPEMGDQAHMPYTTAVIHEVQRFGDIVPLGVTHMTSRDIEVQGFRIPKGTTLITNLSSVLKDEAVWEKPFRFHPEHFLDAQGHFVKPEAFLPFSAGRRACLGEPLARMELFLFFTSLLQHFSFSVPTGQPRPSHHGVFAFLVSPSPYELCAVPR

Cytochrome P450 1A2 = molecular target: T4, Cytochrome P450 1A2 (Homo sapiens, UniProt P05177);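 further: PubChem cytochrome P450 panel assay, CYP1A2 panel member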
T4 sequence (P05177 whole entry): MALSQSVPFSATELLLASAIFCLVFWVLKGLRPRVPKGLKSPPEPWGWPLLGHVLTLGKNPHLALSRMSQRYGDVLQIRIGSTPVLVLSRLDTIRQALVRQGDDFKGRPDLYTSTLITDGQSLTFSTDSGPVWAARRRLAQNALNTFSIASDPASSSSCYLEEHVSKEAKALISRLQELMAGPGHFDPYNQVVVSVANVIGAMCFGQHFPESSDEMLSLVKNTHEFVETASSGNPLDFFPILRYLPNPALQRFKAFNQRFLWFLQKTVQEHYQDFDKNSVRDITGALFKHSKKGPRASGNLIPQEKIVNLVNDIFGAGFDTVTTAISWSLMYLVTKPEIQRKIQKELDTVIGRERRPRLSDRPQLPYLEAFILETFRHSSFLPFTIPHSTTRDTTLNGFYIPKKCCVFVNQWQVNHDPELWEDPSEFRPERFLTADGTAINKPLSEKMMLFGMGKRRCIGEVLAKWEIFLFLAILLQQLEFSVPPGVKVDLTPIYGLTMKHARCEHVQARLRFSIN

[10] = HEp-2 cell cytotoxicity, dose response, cytotoxicity control for RSV inhibitor project, HTS (AID 2410); assay type: functional; settings: human respiratory syncytial virus
[11] = growth suppression of beta-catenin-knockout colon cells, dose response, cell-based, HCT116, human colon tumor (AID 1045); assay type: functional;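 further: HCT116 colon tumor cells with beta catenin knocked out; cells exposed to compound for 60 hours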
[12] = growth suppression of PTEN-null colon cells, dose response, cell-based, HCT116 PTEN knockout (AID 1047); assay type: functional;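 further: HCT116 colon tumor cells with PTEN knocked out; cells exposed to compound for 60 hours before readout; potency for loss of cell viability measured by luminescence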
[13] = Luminescence Cell-Based Dose Response HTS to Identify Activators of Luciferase Translation or Activity in H4 […] Cells. [Related pubchem assays: 1829 (Project Summary), 1814 (Primary HTS)]; assay type: functional
H4 = assay: Luminescence Cell-Based Dose Response HTS to Identify Activators of 5'UTR Stem-Loop Driven Prion Protein mRNA Translation in H4 Neuroglioblastoma Cells. [Related pubchem assays: 1829 (Project Summary), 1814 (Primary HTS)]; assay type: functional; settings: Homo sapiens
Cytochrome P450 2C9 = Cytochrome P450 2C9 (Homo sapiens, UniProt P11712)
Cytochrome P450 2C9, sequence (P11712 whole entry): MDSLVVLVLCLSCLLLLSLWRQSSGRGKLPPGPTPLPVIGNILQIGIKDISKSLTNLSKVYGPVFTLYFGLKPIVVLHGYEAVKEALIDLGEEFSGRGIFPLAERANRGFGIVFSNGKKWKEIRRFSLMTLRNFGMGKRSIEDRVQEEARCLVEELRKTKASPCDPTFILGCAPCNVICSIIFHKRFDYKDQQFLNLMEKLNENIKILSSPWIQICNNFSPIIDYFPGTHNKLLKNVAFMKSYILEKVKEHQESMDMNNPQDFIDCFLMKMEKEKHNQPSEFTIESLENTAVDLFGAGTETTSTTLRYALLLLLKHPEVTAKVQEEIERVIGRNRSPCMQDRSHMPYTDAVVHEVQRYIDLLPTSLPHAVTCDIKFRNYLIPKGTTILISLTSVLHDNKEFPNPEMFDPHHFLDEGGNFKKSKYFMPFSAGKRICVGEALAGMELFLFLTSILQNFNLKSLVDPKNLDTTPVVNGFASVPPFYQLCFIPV

O=C(OCc1nnc(-c2ccccc2)o1)c1cc([N+](=O)[O-])ccc1Cl
IC50 (cells): 11.8 µM (active)

O=C1CCC(=O)N1c1ccc(CSc2nc3ccccc3[nH]2)cc1
AC50 [1]: 1.22 µM (active)

CNC(=S)NN=C(C)c1ccc(OC)cc1O
IC50 [2]: > 66 µM (inactive)
IC50 [3]: > 66 µM (inactive)

COc1cc(CNC(C)c2ccccc2)cc(Br)c1OCc1ccc(F)cc1 (stereo not given)
EC50 [4]: > 120 µM (not active)
EC50 [5]: 17.7 µM (active)
IC50 (Protein skinhead-1): 7.7 µM (active)
EC50 [6]: > 60 µM (not active)
AC50 (INS1): 6.99 µM (active)
EC50 [7]: 19.2 µM (active)
EC50 [8]: 2.41 µM (active)

O=C(c1cccs1)N1CCN=C1SCc1cccnc1
AC50 [1]: 1.27 µM (active)

CCN(CC)c1ccc(NS(=O)(=O)c2cn(C)c(=O)n(C)c2=O)c(C)c1
AC50 [1]: 0.789 µM (active)

Cc1ccc(F)cc1N=C(S)NCCc1ccccc1
EC50 [9]: > 195 µM (not active)

CN(/C(=N\S(=O)(=O)c1ccccc1)C(F)(F)F)c1ccccc1
EC50 [9]: > 195 µM (not active)

CCOC(=O)C1=C(CSc2nc(-c3ccccc3)ccc2C#N)OC(N)=C(C#N)C1c1ccccc1 (stereo not given)
IC50 (Protein skinhead-1): > 100 µM (inactive)

COc1ccc(-n2c(=O)c(-c3cc(F)cc(F)c3)nc3cnc(N4CCOCC4)nc32)cc1
AC50 (Cytochrome P450 3A4): 15.8 µM (inconclusive)
AC50 (Cytochrome P450 2D6): 20 µM (inconclusive)
AC50 (Cytochrome P450 1A2): 15.8 µM (inconclusive)

CC[n+]1c(/C=C/c2cc([N+](=O)[O-])ccc2O)ccc2ccccc21
CC50 [10]: 36.9 µM (active)
EC50 [9]: > 195 µM (not active)

CC(=O)Nc1ccc(NC(=O)c2cc([N+](=O)[O-])cc([N+](=O)[O-])c2)cc1
IC50 (cells): 13.9 µM (active)
EC50 [6]: > 60 µM (not active)
EC50 [8]: 1.63 µM (active)

CCCOc1ccc(Cc2c(Cl)nc(SC)nc2NC)cc1
AC50 (INS1): 3.53 µM (active)

COc1ccc(NC(=O)C2Cc3ccccc3C(=O)O2)cc1 (stereo not given)
EC50 [9]: > 195 µM (not active)

COC(=O)c1cc(S(=O)(=O)NCCc2ccccc2)c[nH]1
EC50 [9]: > 195 µM (not active)

O=C(CC(c1ccccc1)c1ccccc1)NCC1CCCO1 (stereo not given)
AC50 (Cytochrome P450 3A4): 22.4 µM (inconclusive)
AC50 (Cytochrome P450 2D6): 11.2 µM (inconclusive)

COc1ccc2c(c1)OC/C(=C/c1cccs1)C2=O
IC50 (Protein skinhead-1): 28.7 µM (active)

CC(NS(=O)(=O)c1ccc(OCC(=O)N2CCOCC2)c(Cl)c1)c1ccccc1 (stereo not given)
IC50 (Protein skinhead-1): > 100 µM (inactive)

O=C(Nc1ccc2c(c1)CN(C(=O)Nc1ccc(F)cc1)CC2)c1ccccn1
IC50 (Protein skinhead-1): > 100 µM (inactive)

O=C(Nc1nnc(-c2ccccc2Cl)o1)c1ccco1
IC50 (cells): 11.8 µM (active)

CNC(=O)NC(=S)NC(=O)c1ccccc1Cl
EC50 [9]: > 195 µM (not active)

CCC(C)(C)NC(=O)C(c1cccn1C)N(C(=O)Cn1nnc2ccccc21)c1ccc(OC)cc1OC (stereo not given)
IC50 (Protein skinhead-1): > 100 µM (inactive)

Cc1ccc(S(=O)(=O)N(C)CC(=O)Nc2ccccc2N2CCCC2)cc1
AC50 [1]: 2.39 µM (active)

Cc1cc(N2CCN(S(=O)(=O)c3ccc(Cl)cc3)CC2)c2ccccc2n1
EC50 [11]: 24.9 µM (active)
EC50 [12]: 26.3 µM (active)
AC50 (INS1): 6.39 µM (active)

Nc1ccc(NC(=O)c2cccs2)cc1
AC50 [1]: 0.515 µM (active)

Cc1occc(=O)c1OC(=O)Nc1ccc(Cl)c(Cl)c1
AC50 (INS1): 5.88 µM (active)

Cc1ccc(Oc2ccc(S(=O)(=O)Nc3ccc(C(=O)O)cc3)cc2)cc1
AC50 [1]: 0.714 µM (active)

COc1cccc(NC(=O)N2CCCC2C(=O)NC(C)C)c1 (stereo not given)
EC50 [9]: 152 µM (active)

CSc1nccn1CC(=O)Nc1ccc(F)cc1
AC50 [1]: 2.88 µM (active)

COc1ccccc1NC(=O)CN1CCSc2ccccc21
AC50 [1]: 1.32 µM (active)

O=C(Nc1ccccc1)c1c[nH]cn1
IC50 (Protein skinhead-1): > 100 µM (inactive)

O=C(CNC(=O)c1cccnc1)N/N=C/c1cc(Br)c(O)c(Br)c1
EC50 [9]: > 195 µM (not active)

Fc1ccccc1N=C(S)NN(Cc1ccccc1)c1ccccc1
IC50 (Protein skinhead-1): > 100 µM (inactive)

CC(=O)Oc1ccc(/C=N/NC(=O)C2CCCN2S(=O)(=O)c2ccc(Cl)cc2)cc1 (stereo not given)
AC50 [1]: 12.7 µM (active)

CCCc1nnc(NC(=O)c2cc3ccccc3oc2=O)s1
IC50 (cells): 2.83 µM (active)

O=C(c1ccccc1-c1nc(-c2ccc(Cl)cc2)no1)N1CCCC1
EC50 [13]: 8.33 µM (active)
EC50 (H4): 99.2 µM (active)

CN1CC[C@]2(C)c3cc(O)ccc3N(C)[C@@H]12
AC50 (Cytochrome P450 2D6): 31.6 µM (inconclusive) and 12.6 µM (inconclusive)
AC50 (Cytochrome P450 1A2): 15.8 µM (inconclusive) and 31.6 µM (inconclusive)
AC50 (Cytochrome P450 2C9): 12.6 µM (inconclusive)

Fc1ccc(Cn2nnc(-c3ccc(CN4CCOCC4)cc3)n2)cc1
IC50 (Protein skinhead-1): 6.09 µM (active)

S=C(N/N=C1\CCc2ccccc21)NC1CCCCC1
EC50 [9]: 87.7 µM (active)

O=S(=O)(O)c1ccc(N2N=C(c3ccccc3)CC2c2ccccc2)cc1 (stereo not given)
AC50 [1]: 10.9 µM (active)

CCCN1C2CCCC1CC(NC(=O)c1ccc(F)cc1)C2 (stereo not given)
IC50 (Protein skinhead-1): > 100 µM (inactive)

COc1ccc(O)c(-c2c(C)n[nH]c2-c2ccc(Cl)cc2)c1
EC50 [9]: > 195 µM (not active)
